# In US9958436B2, “Determination of cell chirality” (THE TRUSTEES OF COLUMBIA UNIVERSITY IN THE CITY OF NEW YORK, priority 2011, dated 2018):
# “Also recorded” adds a separate entry of the source.
# Experiments:
# [1] = system: C2C12 cells; experiment: Effects of culture conditions (substrate protein coating, calcium chelator) on cell chirality; type: cell-based, mouse; details: count of rings
# Description: An adhesive SAM octadecanethiol (Sigma) was transferred onto the gold-coated (150 Å in thickness) glass slide with the PDMS stamp (see e.g., FIG. 1) (L. Q. Wan et al., Integr Biol (Camb) 2, 346 (Aug. 10, 2010)). The slide was then immersed in a non-adhesive ethylene glycol-terminated SAM (HS-(CH2)11-EG3, Prochimia, Poland) for 3 hours. Finally, patterned surfaces were washed with ethanol and coated with 10 μg/ml fibronectin (Sigma) for 30 minutes.
# (§1) Cells were maintained in tissue flasks with culture media specified in TABLE 2. After reaching 70% confluency, cells were trypsinized and seeded onto protein-coated patterned surfaces. Once the cells attached, extra cells were washed off with fresh medium. At this time drugs were added into the culture medium if necessary. Phase contrast images were taken after overnight incubation at 37° C. and 5% CO2 when cells reached confluency on the ring patterns.
# (§2) High-resolution phase contrast images of live patterned cells were taken at a resolution of ˜0.645 μm/pixel, and analyzed using a custom-written code in MatLab (MathWorks, Natick, Mass.), based on the automated detection of intensity gradient and circular statistics (W. J. Karlon et al., Ann Biomed Eng 27, 712 (November-December, 1999)). In this algorithm, the intensity gradient was determined pixel by pixel with a Gaussian differential filter. In each sub-region of the image, the dominant local direction was determined using an accumulator scheme, in which the orientation of each pixel follows a von Mises distribution, a circular analogue of the linear normal distribution. Subsequently, the orientation in each sub-region was converted into an angle bias based on its deviation from the circumferential direction (see e.g., FIG. 2C). Mean angle and standard deviation of LR asymmetry were calculated for all sub-regions, using circular statistics (N. I. Fish, Statistical Analysis of Circular Data. (Cambridge University Press, Cambridge, UK, 1993)). […] The sub-region size was therefore set to 20 by 20 pixels (i.e., 13 by 13 μm).
# (§3) Cell chirality on ring patterns (i.e., clockwise or counterclockwise alignment) was determined from calculated biased angles in local regions with one sample test for the mean angle, analogous to the one sample t-test in linear statistics (N. I. Fish, Statistical Analysis of Circular Data. (Cambridge University Press, Cambridge, UK, 1993)).
# The geometric boundaries determined organelle positioning (i.e., x-axis), with centrosomes (bright green, see e.g., FIG. 4B) and Golgi apparatus (red, see e.g., FIG. 4C) being positioned closer to the boundaries than the cell nucleus (blue) (R. A. Desai, L. Gao, S. Raghavan, W. F. Liu, C. S. Chen, J Cell Sci 122, 905 (Apr. 1, 2009)), independent of the gravitational direction. In addition, cell chirality was maintained on patterns with different surface chemistry, and after the disruption of cadherin function (see e.g., FIG. 1, TABLE 6, TABLE 7).
# [2] = system: C2C12 cells; experiment: Cell chirality (alignment) on micropatterned rings, drug treatment, C2C12; type: cell-based, mouse; details: for CCW: counter-clockwise alignment / CW: clockwise alignment / N/S: not significantly biased to CW or CCW: C2C12 on ring patterns, count of rings
# Description: as §1
# (§4) To examine the role of actin in left-right (LR) asymmetry, cells were tested with 20-500 nM Latrunculin A, 0.05-1.0 μg/ml Cytochalasin D, and 1-100 nM Jasplakinolide. Latrunculin A inhibits actin polymerization by forming a 1:1 molar complex with G-actin, thereby inhibiting its ability to polymerize into F-actin (M. Coue, S. L. Brenner, I. Spector, E. D. Korn, FEBS Lett 213, 316 (Mar. 23, 1987)). Cytochalasin D inhibits actin polymerization by binding to the growing ends of F-actin chains and thus preventing the attachment and addition of G-actin monomers (J. A. Cooper, J Cell Biol 105, 1473 (October, 1987)). Jasplakinolide is known to bind to and stabilize actin filaments in vitro (M. R. Bubb, I. Spector, B. B. Beyer, K. M. Fosen, J Biol Chem 275, 5163 (Feb. 18, 2000)).
# (§5) To examine the role of microtubules in LR asymmetry, 0.2-2 μM Nocodazole, and 0.3-30 nM Taxol were used. Nocodazole suppresses microtubule dynamics by destabilizing and disassembling microtubules (J. A. Cooper, J Cell Biol 105, 1473 (October, 1987)). Taxol inhibits the microtubule depolymerization and stabilizes microtubules (W. B. Derry, L. Wilson, M. A. Jordan, Biochemistry 34, 2203 (Feb. 21, 1995)).
# To examine the role of the actomyosin motor, cells were tested with […], […], and 0.5-10 […]. Y-27632 works as a selective inhibitor to prevent the phosphorylation of the myosin regulatory light chain (T. Ishizaki et al., Mol Pharmacol 57, 976 (May, 2000)). ML-7 acts as a selective inhibitor of the myosin light chain kinase (M. Isemura, T. Mita, K. Satoh, K. Narumi, M. Motomiya, Cell Biol Int Rep 15, 965 (October, 1991)). Blebbistatin forms a low actin affinity complex through binding to myosin heads, causing the inhibition of nonmuscle myosin II ATPase activity (M. Kovacs, J. Toth, C. Hetenyi, A. Malnasi-Csizmadia, J. R. Sellers, J Biol Chem 279, 35557 (Aug. 20, 2004)).
# as §2, §3
# [3] = system: hUVEC cells; experiment: Cell chirality (alignment) on micropatterned rings, drug treatment, hUVEC; type: cell-based, human; details: hUVEC on ring patterns, count of rings
# Description: as §1, §4, §5, §2, §3
# [4] = system: skin tumor cancer cells; experiment: Cell chirality on patterned substrates, skin tumor cancer cells, actin interfering reagent; type: cell-based, human; details: count of patterns
# Description: as §2, §3
# Experiments were conducted to determine whether cancer cell chirality depends on actin function. Skin cancer cells were treated with actin interfering reagent Lantrunculin A at 0 nM (control), 20 nM, 50 nM, 100 nM, or 200 nM.
# [5] = system: C2C12 cells; experiment: Cell polarization by organelle positioning relative to ring boundaries (immunofluorescence); type: cell-based, mouse; details: C2C12 on rings; centrosome vs nucleus position
# Description: After imaging, cells were fixed with 4% formaldehyde in cytoskeletal buffer (10 mM MES, 138 mM KCl, 3 mM MgCl2, 2 mM EGTA, and 0.32 M sucrose) for 25 minutes. For actin/tubulin double staining, the cells were incubated with phalloidin-TRITC (1:400; Invitrogen) and anti-Tubulin-FITC (1:50; Sigma) for 1 hour. For the Golgi apparatus positioning inside patterned rings, the cells were incubated in 1 μg/ml anti-human golgin-97 (Invitrogen) for 1 hour. After secondary antibodies, cell nuclei were stained with 200 ng/ml 40, 6-diamidino-2-phenylindole (DAPI; Sigma) for 10 minutes. Finally, the cells were mounted with Fluoromount-G medium (SouthernBiotech, Birmingham, Ala.).
# [6] = system: C2C12 cells; experiment: Analysis of cell migration on ring patterns (time-lapse, digital image correlation); type: cell-based, mouse; details: C2C12 treated
# Description: For time-lapse videos, cells were patterned on a gold-coated glass-bottom Petri dish (ibid, München, Germany). After cells attached, the dish was transferred into an environmental chamber (37° C. and 5% CO2) and image time series were recorded every 5 minutes at a resolution of 1.56 μm/pixel for a total time of 20-40 hours. As the image capture rate is much higher than the characteristic time for cell migration, digital image correlation, together with sub-pixel displacement estimation, were used to determine the displacements of cell migration. A FFT (fast Fourier transform)-based method was first utilized to match regions of two sequential phase contrast images. The calculated displacement values were then used as inputs for a more accurate estimation of displacement fields at a sub-pixel level, using a second-order image correlation algorithm described previously (P. Zhou, K. E. Goodson, Opt Eng 40, 1613 (August, 2001)). To evaluate the bias of cell migration, the obtained velocity field was further projected in the circumferential (Vθ) and radial (Vr) direction.
# [7] = calcium chelator added to culture, 0.5 mM
# [8] = calcium chelator added to culture, 2 mM
# [9] = substrate protein coating of the pattern
molecule,measurement,setting,value
O=C(O)CN(CCOCCOCCN(CC(=O)O)CC(=O)O)CC(=O)O [EGTA],CCW: counter-clockwise alignment,[1]; [7],24
same,CW: clockwise alignment,[1]; [7],0
same,N/S: not significantly biased to CW or CCW,[1]; [7],2
same,CCW: counter-clockwise alignment,[1]; [8],12
same,CW: clockwise alignment,[1]; [8],1
same,N/S: not significantly biased to CW or CCW,[1]; [8],3
Fibronectin,CCW: counter-clockwise alignment,[1]; [9],32
same,CW: clockwise alignment,[1]; [9],1
same,N/S: not significantly biased to CW or CCW,[1]; [9],4
Laminin,CCW: counter-clockwise alignment,[1]; [9],34
same,CW: clockwise alignment,[1]; [9],2
same,N/S: not significantly biased to CW or CCW,[1]; [9],2
C/C1=C/C(=O)O[C@@H]2C[C@@H](CC[C@H](C)/C=C\C=C\CC1)O[C@@](O)([C@@H]1CSC(=O)N1)C2 [Latrunculin A],CCW: counter-clockwise alignment,[2]; drug 50 nM,2
same,CW: clockwise alignment,[2]; drug 50 nM,61
same,N/S: not significantly biased to CW or CCW,[2]; drug 50 nM,15
same,CCW: counter-clockwise alignment,[2]; drug 200 nM,0
same,CW: clockwise alignment,[2]; drug 200 nM,57
same,N/S: not significantly biased to CW or CCW,[2]; drug 200 nM,7
same,CCW: counter-clockwise alignment,[2]; drug 500 nM,0
same,CW: clockwise alignment,[2]; drug 500 nM,1
same,N/S: not significantly biased to CW or CCW,[2]; drug 500 nM,10
same,effect on chirality of C2C12 cells,[2]; low concentrations of the actin treadmilling inhibitors,reversed the chirality of C2C12 cells from CCW into CW
same,CCW: counter-clockwise alignment,[3]; drug 20 nM,0
same,CW: clockwise alignment,[3]; drug 20 nM,36
same,N/S: not significantly biased to CW or CCW,[3]; drug 20 nM,8
same,CCW: counter-clockwise alignment,[3]; drug 50 nM,0
same,CW: clockwise alignment,[3]; drug 50 nM,2
same,N/S: not significantly biased to CW or CCW,[3]; drug 50 nM,19
same,CCW: counter-clockwise alignment,[3]; drug 200 nM,5
same,CW: clockwise alignment,[3]; drug 200 nM,2
same,N/S: not significantly biased to CW or CCW,[3]; drug 200 nM,56
same,CCW: counter-clockwise alignment,[3]; drug 500 nM,1
same,CW: clockwise alignment,[3]; drug 500 nM,2
same,N/S: not significantly biased to CW or CCW,[3]; drug 500 nM,42
same,CCW: counter-clockwise alignment,[4]; 20 nM,0
same,CW: clockwise alignment,[4]; 20 nM,21
same,N/S: not significantly biased to CW or CCW,[4]; 20 nM,4
same,CCW: counter-clockwise alignment,[4]; 50 nM,1
same,CW: clockwise alignment,[4]; 50 nM,28
same,N/S: not significantly biased to CW or CCW,[4]; 50 nM,2
same,CCW: counter-clockwise alignment,[4]; 100 nM,0
same,CW: clockwise alignment,[4]; 100 nM,32
same,N/S: not significantly biased to CW or CCW,[4]; 100 nM,0
same,CCW: counter-clockwise alignment,[4]; 200 nM,2
same,CW: clockwise alignment,[4]; 200 nM,8
same,N/S: not significantly biased to CW or CCW,[4]; 200 nM,3
same,effect on cell polarization (organelle positioning relative to boundaries),[5],did not alter cell polarization; also recorded: does not change the polarity of C2C12 cells
same,direction of cell migration at the boundaries,[6]; versus untreated,reversal at the boundaries
same,cell migration velocity at the ring boundaries,[6]; CW along the outer ring and CCW along the inner ring,15 μm/hr
